# Patent US20070037833A1, “Compositions and methods for inhibiting neurodegeneration” (priority 2005, published 2007)
# Entries after “also recorded” stand apart in the source; their conditions may differ.
# Assays:
# Akt = assay: Immunoblot for phosphoAKT in spinal cord cultures; format: cell-based, rat
# MAP kinase = assay: Immunoblot for phosphoMAPK in spinal cord cultures; format: cell-based, rat
# Procedure: (§1) Cells were lysed in 1% NP-40 lysis buffers containing protease inhibitors, subjected to SDS-PAGE and immunoblotted as previously described (Fryer et al., 1999; Fryer et al., 2000). For immunoprecipitation, lysates from 60 mm dishes were pre-cleared by incubation with protein A beads (Santa Cruz), incubated with primary antibody (4 μg/ml)×2 hours then 50 μL of beads added and incubated overnight with gentle agitation at 4° C. Beads were pelleted, washed 5× with 10 mM Tris pH 7.4+0.5 mM EGTA+0.5 mM EDTA+0.1% NP40 before elution in 1× Laemelli sample buffer. Antibody sources: BD Transduction Labs—TrkB and MAP Kinase used at 1:500, Cell Signaling—Akt 1:1000; phosphoTrk (tyr490) 1:1000; phospho p42/44 MAP Kinase (thr 202/tyr204) 1:1000; phosphoAkt (ser473) 1:500; IGFI antibody (tyr 1131) 1:500. Upstate—adenosine A2a 1:1000. Sigma—actin 1:200. Biosource—active src (clone 28) 1:200.
# (§2) We next asked about the effect of the adenosine A2 receptor antagonism on Trk signaling. Cultures of spinal cord cells (grown in the presence of a cocktail of trophic factors including 10 ng/ml BDNF) received KW6002 (1 μM), MRS1754 (50 nM) or vehicle (DMSO 0.1%) and 24 hrs. later, lysates were prepared for immunoblots for Trk and the MAP kinase downstream signaling module (FIG. 2, panel a). Immunoblots for phosphoTrk and phosphoMAPK were employed to monitor the state of activation of these proteins.
# (§3) We followed up these observations by determining the effect of enprofylline on Trk signaling and determined the extent to which the resultant biochemical changes mimic the effects of direct pharmacological Trk antagonism with CEP4416. […] The effect of drug treatment on AKT was particularly marked. […] To determine the specificity of these agents, we examined their effect on Insulin-like growth factor 1 (IGF1) signaling through the IGF receptor tyrosine kinase (IGFR). […] It is unlikely that phosphodiesterase activity of enprofylline can explain these observations as increased cAMP levels enhance, not suppress, TrkB activation (Boulanger and Poo, 1999; Ji et al., 2005).
# [1] = tested on: motor neurons expressing G85R SOD; assay: Motor neuron death from HSV-expressed mutant SOD in spinal cord cultures; format: cell-based, rat; settings: 6 days post-infection; treatment daily or every other day
# Text: Various cDNAs were cloned into the PrpUC amplicon plasmid and were used to generate recombinant HSV as previously described (Neve et al., 1997). The titer of viruses used in these studies were routinely 3-5×10^7 plaque-forming units/ml. The cDNA for wild type/mutant SOD and wild type/mutant p150^glued were gifts of D. Borchelt and E. Holzbaur, respectively. The K295R mutant version of chick src was a gift of J. Brugge.
# Mutations in superoxide dismutase (SOD) or the p150^glued subunit of dynactin are known to account for a familial form of ALS in a subpopulation of individuals (Rosen, 1993; Puls et al., 2003; Bruijn et al., 2004). We inquired whether expression the mutant forms of SOD or p150^glued caused motor neuron death in vitro and if Trk antagonism was neuroprotective. Recombinant herpes simplex viruses (HSVs) were generated that expressed wild type or mutant form of SOD (G85R) and wild type or mutant p150^glued (G59S). […] Spinal cord cultures were infected with virus at 14 DIV and the number of motor neurons was determined 2, 4, 6 or 8 days later (FIG. 4, panel a.).
# We next determined if KW6002 could protect motor neurons from the toxic effects of mutant proteins. Spinal cord cultures were infected with viruses expressing wild type or mutant versions of SOD or p150^glued at 14 DIV, then treated with drug or vehicle for 4 days (FIG. 4, panel b.). […]
# [2] = Robeva et al.; cited from earlier work
# Trk = assay: Immunoblot for phosphoTrk in spinal cord cultures; format: cell-based, rat
# Procedure: as §1, §2, §3
# [3] = 6 and 24 hours, 100 μM enprofylline, 30 nM CEP-4416
# [4] = 6 hours post drug administration
# [5] = 48 hours post drug administration
# Procedure for purified motor neurons: Embryonic Sprague-dawley rat spinal cord neurons were grown on previously established cortical astrocyte monolayers as previously described (Hu and Kalb, 2003). Briefly, the cerebral cortex of postnatal day (P) 1-3 rat pups was dissociated and plated on tissue culture plastic (Primeria) or laminin/polylysine coated glass overslips and maintained in Minimal Essential Media (10% horse serum, 10% fetal bovine serum) and 10 μM AraC was added for 1 day to arrest further proliferation when confluent. Under these conditions, no cortical neurons are present in these cultures. […]
# The media was removed (and saved), cells were exposed to 100 μM kainic acid or vehicle in Locke's buffer for one hour, washed three times in Locke's buffer not containing kainic acid and the original media restored to each dish (Hu and Kalb, 2003). […] To quantify the number of stained cells, we counted the number of labeled cells from three non-overlapping fields using a 5× objective on a Zeiss upright Axioskop microscope and the value from one coverslip was averaged. […] When cell body diameter was assessed in select experiments, a reticule was introduced into an eye piece and the length of the long axis of a neuron noted. […]
compound,measurement,setting,value
"CCCn1c(=O)[nH]c(=O)c2[nH]cnc21 [enprofylline, 3-propylxanthine]",abundance of phosphoAKT,Akt; [3],decrease in the abundance of phosphoAKT and phosphoMAPK at 6 and 24 hours
same,phosphorylation of Akt,Akt; [4],"decreases in the phosphorylation of Trk, MAP kinase and Akt"
same,abundance of phosphoAKT,Akt; 24 hours post drug administration,"robust reduction in phosphoTrk, phosphoMAPK and phosphoAKT"
same,abundance of phosphoAKT,Akt; [5],remained depressed
same,abundance of phosphoMAPK,MAP kinase; [3],decrease in the abundance of phosphoAKT and phosphoMAPK at 6 and 24 hours
same,phosphorylation of MAP kinase,MAP kinase; [4],"decreases in the phosphorylation of Trk, MAP kinase and Akt"
same,abundance of phosphoMAPK,MAP kinase; 24 hours treatment,"robust reduction in phosphoTrk, phosphoMAPK and phosphoAKT"
same,phosphorylation of MAPK,MAP kinase; [5],largely returned to baseline
same,motor neuron survival / toxicity of G85R SOD,[1],significantly greater number of motor neurons; also recorded: completely prevented the toxicity of mutant protein expression
same,bioavailability,[2],good
same,% motor neuron death after excitotoxic insult,"purified motor neurons; 24 hours pre-treatment, grown in BDNF+CT1",3±1%
same,death of motor neurons after kainic acid,purified motor neurons; pre-treated for 24 hrs,No death of motor neurons occurred
same,abundance of phosphoTrk,"Trk; 6, 24 or 48 hours, 100 μM enprofylline, 30 nM CEP-4416",decrease in the abundance of phosphoTrk at all time points
same,phosphorylation of Trk,Trk; [4],"decreases in the phosphorylation of Trk, MAP kinase and Akt"
same,abundance of phosphoTrk,Trk; 24 hours treatment,"robust reduction in phosphoTrk, phosphoMAPK and phosphoAKT"
same,abundance of phosphoTrk,Trk; [5],decrease in phosphoTrk could still be detected
